The NIST ThermoML archive (doi:10.1016/j.jct.2012.09.028)
Numbers after ± are expanded uncertainties.

Conditions: 101.33 kPa, Crystal, Vacuum adiabatic calorimetry

O=C[C@H](O)[C@@H](O)[C@H](O)CO [D-xylose]
Conditions | molar entropy [J/K/mol]
0.5 K | 0.0002783
1 K | 0.0007579
1.5 K | 0.001652
2 K | 0.003197
2.5 K | 0.005661
3 K | 0.009356 ± 0.015
3.5 K | 0.01464 ± 0.015
4 K | 0.02194 ± 0.015
4.5 K | 0.0317 ± 0.015
5 K | 0.04448 ± 0.016
5.5 K | 0.06082 ± 0.016
6 K | 0.08137 ± 0.016
6.5 K | 0.1068 ± 0.016
7 K | 0.1377 ± 0.017
7.5 K | 0.1749 ± 0.017
8 K | 0.219 ± 0.018
8.5 K | 0.2706 ± 0.018
9 K | 0.3303 ± 0.019
9.5 K | 0.3987 ± 0.02
10 K | 0.4763 ± 0.021
11 K | 0.6598 ± 0.023
12 K | 0.8803 ± 0.025
13 K | 1.138 ± 0.028
14 K | 1.432 ± 0.03
15 K | 1.761 ± 0.033
16 K | 2.122 ± 0.036
17 K | 2.515 ± 0.04
18 K | 2.935 ± 0.043
19 K | 3.383 ± 0.045
20 K | 3.854 ± 0.048
25 K | 6.505 ± 0.06
30 K | 9.489 ± 0.089
35 K | 12.65 ± 0.099
40 K | 15.88 ± 0.11
45 K | 19.14 ± 0.12
50 K | 22.41 ± 0.13
55 K | 25.66 ± 0.14
60 K | 28.89 ± 0.15
65 K | 32.12 ± 0.16
70 K | 35.35 ± 0.17
75 K | 38.56 ± 0.18
80 K | 41.77 ± 0.19
85 K | 44.96 ± 0.2
90 K | 48.15 ± 0.37
95 K | 51.33 ± 0.38
100 K | 54.5 ± 0.38
110 K | 60.81 ± 0.39
120 K | 67.1 ± 0.4
130 K | 73.34 ± 0.41
140 K | 79.56 ± 0.42
150 K | 85.75 ± 0.43
160 K | 91.91 ± 0.44
170 K | 98.05 ± 0.45
180 K | 104.16 ± 0.46
190 K | 110.25 ± 0.47
200 K | 116.32 ± 0.47
210 K | 122.38 ± 0.48
220 K | 128.42 ± 0.49
230 K | 134.45 ± 0.5
240 K | 140.47 ± 0.51
250 K | 146.47 ± 0.52
260 K | 152.47 ± 0.53
270 K | 158.46 ± 0.54
273.15 K | 160.35 ± 0.54
280 K | 164.44 ± 0.55
290 K | 170.42 ± 0.56
298.15 K | 175.29 ± 0.56
300 K | 176.4 ± 0.56
